From US20250154554A1, “ANTIMICROBIAL SUSCEPTIBILITY” (priority 2022, published 2025)
Structures can show the parent of a compound that is named as a salt. Where two headings read alike, the source gives them in different places.

What was measured:
[1] = system: bacteria; settings: by cell membrane lesions; reference [14]; cited from earlier work
[2] = system: fungi; settings: by cell membrane lesions; reference [13]; cited from earlier work
[3] = system: Enterobacterales; experiment: Broth microdilution MIC of meropenem for screening of carbapenemases; type: cell-based; settings: the 2 strains found false negative in the carbapenemase screening
Protocol: Standard methodologies were performed from the same inoculum used to spike the blood cultures. Quality control of the reference methods was also performed according to the recommendations of EUCAST and CLSI.

[4] = system: Gram-negative bacteria (Enterobacterales, Pseudomonas, Acinetobacter); settings: for RM I (strains intermediate by reference method) / RM R (strains resistant by reference method) / RM S (strains susceptible by reference method): total of 3 sites, blood cultures; for CLSI RM I / EUCAST RM I: number of strains I; for CLSI RM R / EUCAST RM R: number of strains resistant; for CLSI RM S / EUCAST RM S: number of strains susceptible
Protocol: (§1) For Colistin (on gram-negative bacteria) and vancomycin (in the case of Staphylococcus), the method used to determine the antimicrobial susceptibility was broth microdilution [5]. […] Standard methodologies were performed from the same inoculum used to spike the blood cultures. Quality control of the reference methods was also performed according to the recommendations of EUCAST and CLSI.
(§2) All the strains were classified as S, I or R according the reference methods. MIC was determined for vancomycin and colistin. The presence of ESBL on Enterobacterales group I, together with the screening for ESBL on Enterobacterales group II, and the screening for AmpC and presence of carbapenemases according EUCAST protocol for detection of mechanisms of resistance were also performed.
(§3) Positive blood cultures were spiked in blood agar and colonies identified and submitted to antimicrobial susceptibility assay according reference disk diffusion method and/or to MIC values determined by microdilution. The results were analysed using the most recent EUCAST breakpoint tables and the M100 (29th ed.) breakpoint tables from CLSI.

[5] = system: K. pneumoniae; experiment: MIC of strains giving very major errors (VME); type: cell-based
Protocol: as §1, §3

[6] = system: S. aureus; experiment: MIC of strains giving very major errors (VME); type: cell-based; settings: strain ST 099, site 2
Protocol: as §1, §3

[7] = system: Gram-positive bacteria (Staphylococcus spp, Enterococcus spp); experiment: Reference method (RM): disk diffusion and/or broth microdilution, S/I/R classification, Gram-positive strains; type: cell-based; settings: for CLSI RM R / EUCAST RM R: number of strains resistant; for CLSI RM S / EUCAST RM S: number of strains susceptible;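 on all read-outs here: susceptibility categories assigned with the latest EUCAST breakpoint tables or CLSI M100 29th edition breakpoints, with quality control of the reference methods following EUCAST and CLSI guidance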
Protocol: as §1, §2, §3

[8] = system: E. cloacae; experiment: MIC of strains giving very major errors (VME); type: cell-based; settings: strain EB 123, site 1
Protocol: as §1, §3

[9] = system: K. aerogenes; experiment: MIC of strains giving very major errors (VME); type: cell-based; settings: strain EB 069, site 2
Protocol: as §1, §3

[10] = system: E. coli; experiment: MIC of strains giving very major errors (VME); type: cell-based; settings: strain EB 718, site 1
Protocol: as §1, §3

[11] = CLSI, FASTinov, Porto, spiked on blood cultures
[12] = CLSI, Hospital Ramon et Cajal, Madrid, patients' blood cultures
[13] = EUCAST, FASTinov, Porto, spiked on blood cultures
[14] = EUCAST, Hospital Ramon et Cajal, Madrid, patients' blood cultures
[15] = CLSI, Hospital S. João, Porto, patients' blood cultures
[16] = EUCAST, Hospital S. João, Porto, patients' blood cultures
[17] = CLSI, FASTinov, Porto, spiked blood cultures
[18] = CLSI, total of 3 sites, blood cultures
[19] = EUCAST, FASTinov, Porto, spiked blood cultures
[20] = EUCAST, total of 3 sites, blood cultures
[21] = CLSI, Hospital Ramon et Cajal, Madrid, patients blood cultures
[22] = EUCAST, Hospital Ramon et Cajal, Madrid, patients blood cultures

Compound	RM I (strains intermediate by reference method) ([4]; CLSI)	RM R (strains resistant by reference method) ([4]; CLSI)	RM S (strains susceptible by reference method) ([4]; CLSI)	RM R (strains resistant by reference method) ([4]; EUCAST)	RM S (strains susceptible by reference method) ([4]; EUCAST)	CLSI RM I [4, 11]	CLSI RM R [4, 11]	CLSI RM R [4, 12]	EUCAST RM R [4, 13]	EUCAST RM R [4, 14]	CLSI RM S [4, 11]	CLSI RM S [4, 12]	CLSI RM S [4, 15]	EUCAST RM S [4, 13]	EUCAST RM S [4, 14]	EUCAST RM S [4, 16]	further results
CN(C)CCCOc1nn(Cc2ccccc2)c2ccccc12 [benzydamine hydrochloride]	–	–	–	–	–	–	–	–	–	–	–	–	–	–	–	–	killing of bacteria [1]: rapidly kills; killing of fungi [2]: rapidly kills
C[C@@H](O)[C@H]1C(=O)N2C(C(=O)O)=C(S[C@@H]3CN[C@H](C(=O)N(C)C)C3)[C@H](C)[C@H]12 [Meropenem]	5	10	217	9	223	5	7	3	6	3	69	72	76	75	72	76	MIC [3]: 0.5 µg/mL; MIC ([5]; Klebsiella pneumoniae, strain EB 021, site 2, read-out: MIC): 16 µg/mL
Penicillin	–	–	–	–	–	–	–	–	–	–	–	–	–	–	–	–	MIC [6]: 0.25 µg/mL; RM R (strains resistant by reference method) [7, 17]: 82; RM S (strains susceptible by reference method) [7, 17]: 49; RM R (strains resistant by reference method) [7, 18]: 209; RM S (strains susceptible by reference method) [7, 18]: 94; RM R (strains resistant by reference method) [7, 19]: 28; RM S (strains susceptible by reference method) [7, 19]: 7; RM R (strains resistant by reference method) [7, 20]: 56; RM S (strains susceptible by reference method) [7, 20]: 19; CLSI RM R [7, 21]: 53; CLSI RM R [7, 15]: 74; EUCAST RM R [7, 22]: 10; EUCAST RM R [7, 16]: 18; CLSI RM S [7, 21]: 15; CLSI RM S [7, 15]: 30; EUCAST RM S [7, 22]: 2; EUCAST RM S [7, 16]: 10
Piperacillin-tazobactam	13	95	237	86	177	6	87	2	71	9	90	71	76	33	69	75	MIC (mg/L) [8]: 64/4; MIC (mg/L) [9]: 64/4; RM I (strains intermediate by reference method) ([4]; EUCAST): 51; CLSI RM I [4, 12]: 7; EUCAST RM I [4, 13]: 49; EUCAST RM I [4, 14]: 2; CLSI RM R [4, 15]: 6; EUCAST RM R [4, 16]: 6; MIC ([5]; strain EB 101, site 1): 64 µg/mL; MIC (mg/L) [10]: >128/4
